Results reported in patent US7345070B2, “Peroxisome proliferator activated receptor agonists” (Eli Lilly and Company, priority 2000, dated 2008).

target: T1, huPPARγ (Homo sapiens, UniProt P37231); assay: Cotransfection assay in CV-1 cells, huPPARγ; type: cell-based; parameters: Appropriate PPARs and RXRα were constitutively expressed using plasmids containing the CMV promoter; expressed in transfected cells; host or cells: CV-1 cells; details: AOX PPRE luciferase reporter, relative to PPARγ agonist reference molecule, read-out: huPPARγ CTF Efficacy
T1 sequence (P37231 1-505): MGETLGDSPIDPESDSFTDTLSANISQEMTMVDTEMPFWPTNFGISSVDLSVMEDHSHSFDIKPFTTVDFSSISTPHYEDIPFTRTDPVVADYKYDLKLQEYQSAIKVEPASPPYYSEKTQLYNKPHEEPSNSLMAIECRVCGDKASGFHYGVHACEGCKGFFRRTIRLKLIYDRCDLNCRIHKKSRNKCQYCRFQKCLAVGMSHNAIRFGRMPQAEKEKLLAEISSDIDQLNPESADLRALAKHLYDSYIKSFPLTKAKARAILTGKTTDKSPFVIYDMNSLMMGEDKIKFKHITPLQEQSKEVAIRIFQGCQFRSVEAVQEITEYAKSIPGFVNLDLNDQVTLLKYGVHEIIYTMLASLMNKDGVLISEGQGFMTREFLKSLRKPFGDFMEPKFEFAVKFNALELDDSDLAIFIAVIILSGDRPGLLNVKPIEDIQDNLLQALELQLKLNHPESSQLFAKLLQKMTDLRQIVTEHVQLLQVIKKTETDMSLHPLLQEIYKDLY
T1 sequence (P19793 1-462 partner): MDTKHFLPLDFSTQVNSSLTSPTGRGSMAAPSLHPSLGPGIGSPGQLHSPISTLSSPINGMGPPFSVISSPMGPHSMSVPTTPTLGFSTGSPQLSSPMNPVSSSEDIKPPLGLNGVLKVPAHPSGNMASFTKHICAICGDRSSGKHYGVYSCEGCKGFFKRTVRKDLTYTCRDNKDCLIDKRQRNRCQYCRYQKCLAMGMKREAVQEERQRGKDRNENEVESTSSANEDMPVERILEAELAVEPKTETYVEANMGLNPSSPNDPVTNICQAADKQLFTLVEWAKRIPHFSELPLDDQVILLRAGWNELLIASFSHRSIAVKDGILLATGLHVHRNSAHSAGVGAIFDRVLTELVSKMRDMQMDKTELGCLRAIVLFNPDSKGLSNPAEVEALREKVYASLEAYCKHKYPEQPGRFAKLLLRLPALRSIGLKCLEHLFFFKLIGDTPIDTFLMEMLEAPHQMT
Protocol: DNA-dependent binding (ABCD binding) was carried out using SPA technology with PPAR receptors. Tritium-labeled PPARα and PPARγ agonists were used as radioligands for generating displacement curves and IC50 values with compounds of the invention. Cotransfection assays were carried out in CV-1 cells. The reporter plasmid contained an acylCoA oxidase (AOX) PPRE and TK promoter upstream of the luciferase reporter cDNA. Appropriate PPARs and RXRα were constitutively expressed using plasmids containing the CMV promoter. […] In order to eliminate such interference, a GAL4 chimeric system was used in which the DNA binding domain of the transfected PPAR was replaced by that of GAL4, and the GAL4 response element was utilized in place of the AOX PPRE. Cotransfection efficacy was determined relative to PPARα agonist and PPARγ agonist reference molecules. Efficacies were determined by computer fit to a concentration-response curve, or in some cases at a single high concentration of agonist (10 μM). For binding or cotransfection studies with receptors other than PPARs, similar assays were carried out using appropriate ligands, receptors, reporter constructs, etc., for that particular receptor.
These studies were carried out to evaluate the ability of compounds of the invention to bind to and/or activate various nuclear transcription factors, particularly huPPARα (“hu” indicates “human”) and huPPARγ. These studies provide in vitro data concerning efficacy and selectivity of compounds of the invention. Furthermore, binding and cotransfection data for compounds of the invention were compared with corresponding data for marketed compounds that act on either huPPARα or huPPARγ.

Emax | Structure (SMILES)
17% | Cc1oc(-c2ccccc2)nc1CCOc1ccc(CC(C)(Oc2ccc3c(c2)OCO3)C(=O)O)cc1 (centres unmarked) [Example 78, 2-(Benzo[1,3]dioxol-5-yloxy)-2-methyl-3-{4-[2-(5-methyl-2-phenyl-oxazol-4-yl)-ethoxy]-phenyl}-propionic acid]
7% | Cc1oc(CCc2ccccc2)nc1CCOc1ccc(C[C@](C)(Oc2ccccc2)C(=O)O)cc1 [Example 86, (S)-2-Methyl-3-{4-[2-(5-methyl-2-phenethyl-oxazol-4-yl)-ethoxy]-phenyl}-2-phenoxy-propionic acid]

Second part, the molecule before the results:

Structure (SMILES) | Emax
COc1cccc(OC(C)(Cc2ccc(OCCc3nc(C4CCCCC4)oc3C)cc2)C(=O)O)c1 (centres unmarked) [Example 76, 3-{4-[2-(2-Cyclohexyl-5-methyl-oxazol-4-yl)-ethoxy]-phenyl}-2-(3-methoxy-phenoxy)-2-methyl-propionic acid] | 24%
Cc1oc(C2CCCCC2)nc1CCOc1ccc(CC(C)(Oc2ccc3c(c2)OCO3)C(=O)O)cc1 (centres unmarked) [Example 80, 2-(Benzo[1,3]dioxol-5-yloxy)-3-{4-[2-(2-cyclohexyl-5-methyl-oxazol-4-yl)-ethoxy]-phenyl}-2-methyl-propionic acid] | 30%
Cc1oc(-c2ccccc2)nc1CCCc1ccc(CC(C)(Oc2ccccc2)C(=O)O)s1 (centres unmarked) [Example 91, 2-Methyl-3-{5-[3-(5-methyl-2-phenyl-oxazol-4-yl)-propyl]-thiophen-2-yl}-2-phenoxy-propionic acid] | 62%
